What was measured:
[1] = Cytotoxic assay (MTT, ISO 10993-5:2009(E)), 24 h treatment; assay type: cell-based; conditions: L929 mouse fibroblast cells, L929 mouse fibroblasts, values above highest tested concentration extrapolated
Experimental: The L929 mouse fibroblast (ATTC® CCL-1™, Manassas, VA, USA) were culturing according to the ATCC product sheet. […] The cell viability assay were performed precisely according to international standards (ISO 10993-5:2009(E)), using the tetrazolium salt [3-(4,5-dimethylthiazol-2-yl)-2,5-diphenyltetrazolium bromide] (MTT, Sigma-Aldrich) and mouse fibroblasts L929 cells. Cells (1 × 10^4 per well) were treated 24 h with compounds or drug in different concentration range. The optical density at 570 nm on the ELISA reader (Multiskan EX, Labsystems, Vienna, VA, USA), was read. The results were expressed as a percentage of viability compared to untreated cells. […] The CC30/CC50 represents the concentration of tested compounds or drugs that was required for 30% or 50% cells proliferation inhibition in vitro. According to the previously mentioned ISO 10993-5:2009(E) norm, the CC30 value is recognized as non-cytotoxic concentration for the cell line. All experiments were performed in triplicate.

| melting point | Compound | CC50 at 24 h [1] |
| --- | --- | --- |
| 250 to 251 °C | COC(=O)C=C1SC(=NN=Cc2ccc(O)cc2)N(c2ccc(Cl)cc2)C1=O [Compound 99, Methyl [3-(4-chlorophenyl)-2-{[(4-hydroxyphenyl)methylidene]hydrazinylidene}-4-oxo-1,3-thiazolidin-5-ylidene]acetate] | 230 µM |
| 229 to 230 °C | CCOc1cc(C=NN=C2SCC(=O)N2c2ccccc2)ccc1O [Compound 45, 2-{[(3-Ethoxy-4-hydroxyphenyl)methylidene]hydrazinylidene}-3-phenyl-1,3-thiazolidin-4-one] | – |
| 222 to 224 °C | O=C1CSC(=NN=Cc2ccc(O)c(Cl)c2)N1c1ccc(F)cc1 [Compound 72, 2-{[(3-Chloro-4-hydroxyphenyl)methylidene]hydrazinylidene}-3-(4-fluorophenyl)-1,3-thiazolidin-4-one] | – |
| 210 to 212 °C | COc1cc(C=NN=C2SCC(=O)N2c2cccc(Cl)c2)ccc1O [Compound 55, 3-(3-Chlorophenyl)-2-{[(4-hydroxy-3-methoxyphenyl)methylidene]hydrazinylidene}-1,3-thiazolidin-4-one] | – |
| 235 to 236 °C | O=C1CSC(=NN=Cc2cccc(O)c2)N1c1ccccc1 [Compound 42, 2-{[(3-Hydroxyphenyl)methylidene]hydrazinylidene}-3-phenyl-1,3-thiazolidin-4-one] | 234 µM |
| 178 to 180 °C | O=C1CSC(=NN=Cc2ccc(O)cc2)N1c1ccccc1Cl [Compound 50, 3-(2-Chlorophenyl)-2-{[(4-hydroxyphenyl)methylidene]hydrazinylidene}-1,3-thiazolidin-4-one] | 226 µM |
| 194 to 196 °C | O=C1CSC(=NN=Cc2ccccc2O)N1c1cccc(Cl)c1 [Compound 52, 3-(3-Chlorophenyl)-2-{[(2-hydroxyphenyl)methylidene]hydrazinylidene}-1,3-thiazolidin-4-one] | – |
| 242 to 244 °C | O=C1CSC(=NN=Cc2cccc(O)c2)N1c1ccc(Br)cc1 [Compound 65, 3-(4-Bromophenyl)-2-{[(3-hydroxyphenyl)methylidene]hydrazinylidene}-1,3-thiazolidin-4-one] | 83.5 µM |
| 192 to 194 °C | O=C1CSC(=NN=Cc2cccc(O)c2)N1c1ccccc1Cl [Compound 49, 3-(2-Chlorophenyl)-2-{[(3-hydroxyphenyl)methylidene]hydrazinylidene}-1,3-thiazolidin-4-one] | 188 µM |
| 235 to 236 °C | O=C1CSC(=NN=Cc2ccc(O)c(Br)c2)N1c1ccc(Cl)cc1 [Compound 63, 2-{[(3-Bromo-4-hydroxyphenyl)methylidene]hydrazinylidene}-3-(4-chlorophenyl)-1,3-thiazolidin-4-one] | – |
| 216 to 218 °C | O=C1CSC(=NN=Cc2ccc(O)c(Br)c2)N1c1ccccc1 [Compound 47, 2-{[(3-Bromo-4-hydroxyphenyl)methylidene]hydrazinylidene}-3-phenyl-1,3-thiazolidin-4-one] | – |
| – | O=C1CSC(=NN=Cc2ccc(O)cc2)N1c1ccccc1 [Compound 43, 2-{[(4-Hydroxyphenyl)methylidene]hydrazinylidene}-3-phenyl-1,3-thiazolidin-4-one] | 485 µM |
| 280 to 282 °C | O=C1CSC(=NN=Cc2ccc(O)cc2)N1c1ccc(Cl)cc1 [Compound 59, 3-(4-Chlorophenyl)-2-{[(4-hydroxyphenyl)methylidene]hydrazinylidene}-1,3-thiazolidin-4-one] | 318 µM |
| 242 to 244 °C | COC(=O)C=C1SC(=NN=Cc2ccccc2O)N(c2ccccc2)C1=O [Compound 89, Methyl [2-{[(2-hydroxyphenyl)methylidene]hydrazinylidene}-4-oxo-3-phenyl-1,3-thiazolidin-5-ylidene]acetate] | 304 µM |
| 236 to 238 °C | O=C(O)CC1SC(=NN=Cc2ccc(O)cc2)N(c2ccccc2)C1=O (centres unmarked) [Compound 76, [2-{[(4-Hydroxyphenyl)methylidene]hydrazinylidene}-4-oxo-3-phenyl-1,3-thiazolidin-5-yl]acetic acid] | ≥ 1000 µM |
| 288 to 290 °C | O=C1CSC(=NN=Cc2ccc(O)cc2)N1c1ccc(Br)cc1 [Compound 66, 3-(4-Bromophenyl)-2-{[(4-hydroxyphenyl)methylidene]hydrazinylidene}-1,3-thiazolidin-4-one] | 247 µM |
| 262 to 264 °C | O=C1CSC(=NN=Cc2ccc(O)cc2)N1c1cccc(Cl)c1 [Compound 54, 3-(3-Chlorophenyl)-2-{[(4-hydroxyphenyl)methylidene]hydrazinylidene}-1,3-thiazolidin-4-one] | 289 µM |

| melting point | Compound | CC50 at 24 h [1] |
| --- | --- | --- |
| 240 to 242 °C | CCOc1cc(C=NN=C2SCC(=O)N2c2ccc(F)cc2)ccc1O [Compound 71, 2-{[(3-Ethoxy-4-hydroxyphenyl)methylidene]hydrazinylidene}-3-(4-fluorophenyl)-1,3-thiazolidin-4-one] | – |
| 224 to 226 °C | O=C1CSC(=NN=Cc2ccc(O)c(Br)c2)N1c1ccc(F)cc1 [Compound 73, 2-{[(3-Bromo-4-hydroxyphenyl)methylidene]hydrazinylidene}-3-(4-fluorophenyl)-1,3-thiazolidin-4-one] | – |
| – | COc1cc(C=NN=C2SC(CC(=O)O)C(=O)N2c2ccccc2)ccc1O (centres unmarked) [Compound 77, [2-{[(4-Hydroxy-3-methoxyphenyl)methylidene]hydrazinylidene}-4-oxo-3-phenyl-1,3-thiazolidin-5-yl]acetic acid] | ≥ 1000 µM |
| 222 to 224 °C | COC(=O)C=C1SC(=NN=Cc2cccc(O)c2)N(c2ccc(Cl)cc2)C1=O [Compound 98, Methyl [3-(4-chlorophenyl)-2-{[(3-hydroxyphenyl)methylidene]hydrazinylidene}-4-oxo-1,3-thiazolidin-5-ylidene]acetate] | 167 µM |
| 218 to 220 °C | CCOc1cc(C=NN=C2SCC(=O)N2c2ccc(Cl)cc2)ccc1O [Compound 61, 3-(4-Chlorophenyl)-2-{[(3-ethoxy-4-hydroxyphenyl)methylidene]hydrazinylidene}-1,3-thiazolidin-4-one] | – |
| 198 to 200 °C | O=C1CSC(=NN=Cc2cccc(O)c2)N1c1cccc(Cl)c1 [Compound 53, 3-(3-Chlorophenyl)-2-{[(3-hydroxyphenyl)methylidene]hydrazinylidene}-1,3-thiazolidin-4-one] | 113 µM |
| 252 to 254 °C | O=C(O)CC1SC(=NN=Cc2ccc(O)c(Br)c2)N(c2ccccc2)C1=O (centres unmarked) [Compound 80, [2-{[(3-Bromo-4-hydroxyphenyl)methylidene]hydrazinylidene}-4-oxo-3-phenyl-1,3-thiazolidin-5-yl]acetic acid] | ≥ 1000 µM |
| 214 to 216 °C | CCOc1cc(C=NN=C2SCC(=O)N2c2cccc(Cl)c2)ccc1O [Compound 56, 3-(3-Chlorophenyl)-2-{[(3-ethoxy-4-hydroxyphenyl)methylidene]hydrazinylidene}-1,3-thiazolidin-4-one] | – |
| 168 to 170 °C | O=C1CSC(=NN=Cc2ccccc2O)N1c1ccccc1Cl [Compound 48, 3-(2-Chlorophenyl)-2-{[(2-hydroxyphenyl)methylidene]hydrazinylidene}-1,3-thiazolidin-4-one] | – |
| 140 to 142 °C | COc1cc(C=NN=C2SCC(=O)N2c2ccc(Cl)cc2Cl)ccc1O [Compound 64, 3-(2,4-Dichlorophenyl)-2-{[(4-hydroxy-3-methoxyphenyl)methylidene]hydrazinylidene}-1,3-thiazolidin-4-one] | – |
| 215 to 216 °C | O=C1CSC(=NN=Cc2ccc(O)c(Cl)c2)N1c1ccccc1 [Compound 46, 2-{[(3-Chloro-4-hydroxyphenyl)methylidene]hydrazinylidene}-3-phenyl-1,3-thiazolidin-4-one] | – |
| 226 to 228 °C | COc1cc(C=NN=C2SCC(=O)N2c2ccc(Cl)cc2)ccc1O [Compound 60, 3-(4-Chlorophenyl)-2-{[(4-hydroxy-3-methoxyphenyl)methylidene]hydrazinylidene}-1,3-thiazolidin-4-one] | – |
| 231 to 233 °C | O=C1CSC(=NN=Cc2ccc(O)c(Cl)c2)N1c1ccc(Cl)cc1 [Compound 62, 2-{[(3-Chloro-4-hydroxyphenyl)methylidene]hydrazinylidene}-3-(4-chlorophenyl)-1,3-thiazolidin-4-one] | – |
| – | O=C1CSC(=NN=Cc2ccc(O)cc2)N1c1ccc(F)cc1 [Compound 69, 3-(4-Fluorophenyl)-2-{[(4-hydroxyphenyl)methylidene]hydrazinylidene}-1,3-thiazolidin-4-one] | 386 µM |
| 236 to 238 °C | COc1cc(C=NN=C2SCC(=O)N2c2ccc(F)cc2)ccc1O [Compound 70, 3-(4-Fluorophenyl)-2-{[(4-hydroxy-3-methoxyphenyl)methylidene]hydrazinylidene}-1,3-thiazolidin-4-one] | – |
| 196 to 198 °C | CCOc1cc(C=NN=C2SCC(=O)N2c2ccccc2Cl)ccc1O [Compound 51, 3-(2-Chlorophenyl)-2-{[(3-ethoxy-4-hydroxyphenyl)methylidene]hydrazinylidene}-1,3-thiazolidin-4-one] | – |
| 238 to 240 °C | O=C1CSC(=NN=Cc2ccccc2O)N1c1ccc(Cl)cc1 [Compound 57, 3-(4-Chlorophenyl)-2-{[(2-hydroxyphenyl)methylidene]hydrazinylidene}-1,3-thiazolidin-4-one] | – |
